In USRE48461E1, “Modulation of androgen receptor expression” (Ionis Pharmaceuticals, Inc., priority 2012, dated 2021):
Oligonucleotides are written 5' to 3', each unit as a sugar letter and its base; * is a phosphorothioate linkage, no mark a phosphodiester; rarer units and linkages stand in square brackets, end groups in braces. Plain capitals give the bases only. e = 2'-O-(2-methoxyethyl) (MOE); k = constrained ethyl (cEt); [5mC] = 5-methylcytosine; d = 2'-deoxy (DNA)

Tests used:
[1] = tested on: AR mRNA; test: Antisense inhibition of human AR in HuVEC cells, single concentration (electroporation, qRT-PCR RTS3559); format: cell-based; conditions: ~24 h
Procedure: Antisense oligonucleotides were designed targeting an AR nucleic acid and were tested for their effects on AR mRNA in vitro. The antisense oligonucleotides were tested in a series of experiments that had similar culture conditions. […] Human primer probe set RTS3559 (forward sequence [NT], designated herein as SEQ ID NO: 9; reverse sequence [NT], designated herein as SEQ ID NO: 10; probe sequence [NT], designated herein as SEQ ID NO: 11) was used to measure mRNA levels. AR mRNA levels were adjusted according to total RNA content, as measured by RIBOGREEN®. […] A total of 155 oligonucleotides were tested. Additional antisense oligonucleotides were designed targeting an AR nucleic acid and were tested for their effects on AR mRNA in vitro. […] Human primer probe set RTS3559 was used to measure mRNA levels. AR mRNA levels were adjusted according to total RNA content, as measured by RIBOGREEN®. […] A total of 82 oligonucleotides were tested. Additional antisense oligonucleotides were designed targeting an AR nucleic acid and were tested for their effects on AR mRNA in vitro. […] Human primer probe set RTS3559 was used to measure mRNA levels. AR mRNA levels were adjusted according to total RNA content, as measured by RIBOGREEN®. […] A total of 40 oligonucleotides were tested. Additional antisense oligonucleotides were designed targeting an AR nucleic acid and were tested for their effects on AR mRNA in vitro. […] Human primer probe set RTS3559 was used to measure mRNA levels. AR mRNA levels were adjusted according to total RNA content, as measured by RIBOGREEN®. […] A total of 75 oligonucleotides were tested. Additional antisense oligonucleotides were designed targeting an AR nucleic acid and were tested for their effects on AR mRNA in vitro. […] Human primer probe set RTS3559 was used to measure mRNA levels. AR mRNA levels were adjusted according to total RNA content, as measured by RIBOGREEN®. […] A total of 616 oligonucleotides were tested. Additional antisense oligonucleotides were designed targeting an AR nucleic acid and were tested for their effects on AR mRNA in vitro. […] Human primer probe set RTS3559 was used to measure mRNA levels. AR mRNA levels were adjusted according to total RNA content, as measured by RIBOGREEN®. […] A total of 385 oligonucleotides were tested.

[2] = tested on: AR mRNA; test: Dose-dependent antisense inhibition of human AR in HuVEC cells (electroporation, qRT-PCR RTS3559, IC50); format: cell-based; conditions: HuVEC, ~16 h
Procedure: (§1) After a treatment period of approximately 16 hours, RNA was isolated from the cells and AR mRNA levels were measured by quantitative real-time PCR. Human AR primer probe set RTS3559 was used to measure mRNA levels. AR mRNA levels were adjusted according to total RNA content, as measured by RIBOGREEN®. […] The antisense oligonucleotides were tested in a series of experiments that had similar culture conditions.
as §1, §1, §1, §1
(§2) After a treatment period of approximately 16 hours, RNA was isolated from the cells and AR mRNA levels were measured by quantitative real-time PCR. Human AR primer probe set RTS3559 was used to measure mRNA levels. AR mRNA levels were adjusted according to total RNA content, as measured by RIBOGREEN®.
as §2

[3] = 500 nM ASO, electroporation, Table 2

Substance | % inhibition ([1]; 250 nM ASO, Table 7) [%] | % inhibition ([1]; 500 nM ASO, Table 5) [%] | percent inhibition of AR ([2]; 31.25 nM, Table 6) [%] | percent inhibition of AR ([2]; 31.25 nM, Table 8) [%] | percent inhibition of AR ([2]; 62.5 nM, Table 6) [%] | percent inhibition of AR ([2]; 62.5 nM, Table 8) [%] | percent inhibition of AR ([2]; 125.0 nM, Table 6) [%] | percent inhibition of AR ([2]; 125.0 nM, Table 8) [%] | percent inhibition of AR ([2]; 500.0 nM, Table 6) [%] | percent inhibition of AR ([2]; 500.0 nM, Table 8) [%] | percent inhibition of AR ([2]; 1000.0 nM, Table 6) [%] | percent inhibition of AR ([2]; 1000.0 nM, Table 8) [%] | IC50 ([2]; Table 6) [nM] | % inhibition ([1]; 1,000 nM ASO, Table 13) [%] | percent inhibition of AR ([2]; 31.25 nM, Table 14) [%] | percent inhibition of AR ([2]; 62.5 nM, Table 14) [%] | percent inhibition of AR ([2]; 125.0 nM, Table 14) [%] | percent inhibition of AR ([2]; 500.0 nM, Table 14) [%] | percent inhibition of AR ([2]; 1000.0 nM, Table 14) [%] | IC50 ([2]; Table 14) [nM] | further results
549457 (kT*kT*kG*dA*dT*dT*dT*dA*dA*dT*dG*dG*dT*kT*kG*k[5mC]) [compound 549457] | 67 | 98 | 40 | 34 | 57 | 44 | 78 | 75 | 96 | 93 | 96 | 96 | 30 | – | – | – | – | – | – | – | % inhibition [1, 3]: 98%; percent inhibition of AR ([2]; 55.6 nM, Table 4): 70%; percent inhibition of AR ([2]; 166.7 nM, Table 4): 95%; percent inhibition of AR ([2]; 500.0 nM, Table 4): 99%; percent inhibition of AR ([2]; 1500.0 nM, Table 4): 99%; IC50 ([2]; Table 4): 18 nM; IC50 ([2]; Table 8): 60 nM
549459 (kA*kT*kG*dG*dT*dT*dG*dA*dT*dT*dT*dA*dA*kT*kG*kG) [compound 549459] | – | 92 | 16 | – | 23 | – | 50 | – | 85 | – | 92 | – | 100 | – | – | – | – | – | – | – | % inhibition [1, 3]: 96%; percent inhibition of AR ([2]; 55.6 nM, Table 4): 61%; percent inhibition of AR ([2]; 166.7 nM, Table 4): 90%; percent inhibition of AR ([2]; 500.0 nM, Table 4): 94%; percent inhibition of AR ([2]; 1500.0 nM, Table 4): 97%; IC50 ([2]; Table 4): 18 nM
560071 (eT*eG*eG*eT*eT*dG*dA*dT*dT*dT*dA*dA*dT*dG*dG*eT*eT*eG*e[5mC]*eA) [compound 560071] | – | 73 | 7 | – | 0 | – | 19 | – | 57 | – | 76 | – | 400 | – | – | – | – | – | – | – | –
560098 (kT*kG*kA*dT*dT*dT*dA*dA*dT*dG*dG*dT*dT*kG*k[5mC]*kA; further chemistry not given here) [compound 560098] | 69 | 99 | 20 | 30 | 41 | 54 | 64 | 65 | 94 | 89 | 94 | 97 | 100 | – | – | – | – | – | – | – | IC50 ([2]; Table 8): 70 nM
560099 (kG*kG*kT*dT*dG*dA*dT*dT*dT*dA*dA*dT*dG*kG*kT*kT) [compound 560099] | – | 95 | 13 | – | 29 | – | 58 | – | 89 | – | 94 | – | 100 | – | – | – | – | – | – | – | –
560100 (antisense kT*kG*kG*dT*dT*dG*dA*dT*dT*dT*dA*dA*dT*kG*kG*kT) [compound 560100] | – | 91 | 16 | – | 24 | – | 53 | – | 81 | – | 93 | – | 100 | – | – | – | – | – | – | – | –
560132 (antisense kG*kT*kT*dG*dA*dT*dT*dT*dA*dA*dT*dG*kG*kT*kT*eG) [compound 560132] | – | – | – | – | – | – | – | – | – | – | – | – | – | 58 | 8 | 19 | 21 | 65 | 85 | 252 | –
560133 (antisense kA*kT*kG*dG*dT*dT*dG*dA*dT*dT*dT*dA*kA*kT*kG*eG) [compound 560133] | – | – | – | – | – | – | – | – | – | – | – | – | – | 53 | 17 | 15 | 24 | 58 | 79 | 336 | –
560137 (antisense TTGATTTAATGGTTGC; all C 5-methyl, all phosphorothioate, sugars by position not given here; further chemistry not fully specified) [compound 560137] | 66 | 95 | 27 | 35 | 49 | 39 | 61 | 64 | 91 | 89 | 96 | 94 | 100 | – | – | – | – | – | – | – | IC50 ([2]; Table 8): 80 nM
569215 (antisense kT*kG*kG*dT*dT*dG*dA*dT*dT*dT*dA*dA*kT*kG*kG*eT) [compound 569215] | – | – | – | – | – | – | – | – | – | – | – | – | – | 59 | 12 | 2 | 26 | 71 | 90 | 234 | –
569220 (antisense eA*kT*kG*kG*dT*dT*dG*dA*dT*dT*dT*dA*kA*kT*kG*eG) [compound 569220] | – | – | – | – | – | – | – | – | – | – | – | – | – | 58 | 11 | 29 | 34 | 59 | 78 | 275 | –
569222 (antisense eT*eT*kG*kA*kT*dT*dT*dA*dA*dT*dG*dG*dT*kT*kG*k[5mC]) [compound 569222] | 74 | – | – | 36 | – | 48 | – | 67 | – | 91 | – | 98 | – | – | – | – | – | – | – | – | IC50 ([2]; Table 8): 60 nM
569223 (antisense eG*eT*kT*kG*kA*dT*dT*dT*dA*dA*dT*dG*dG*kT*kT*kG) [compound 569223] | – | – | – | – | – | – | – | – | – | – | – | – | – | 59 | 21 | 20 | 30 | 73 | 87 | 191 | –
569228 (antisense eT*eT*kG*kA*kT*dT*dT*dA*dA*dT*dG*dG*kT*kT*kG*e[5mC]) [compound 569228] | 67 | – | – | 26 | – | 43 | – | 62 | – | 88 | – | 92 | – | – | – | – | – | – | – | – | percent inhibition of AR ([2]; 62.5 nM, Table 10): 29%; percent inhibition of AR ([2]; 125.0 nM, Table 10): 44%; percent inhibition of AR ([2]; 500.0 nM, Table 10): 77%; percent inhibition of AR ([2]; 1000.0 nM, Table 10): 87%; IC50 ([2]; Table 8): 90 nM; IC50 ([2]; Table 10): 158 nM
569229 (antisense eG*eT*kT*kG*kA*dT*dT*dT*dA*dA*dT*dG*kG*kT*kT*eG) [compound 569229] | – | – | – | – | – | – | – | – | – | – | – | – | – | 57 | 16 | 14 | 36 | 74 | 84 | 220 | –
